In article PMC7822819, “Discovery of a new class of integrin antibodies for fibrosis” (Scientific Reports, 2021):
Like-named read-outs stand apart in the source and are kept apart here.

Tests used:
[1] = tested on: normal human lung fibroblasts; experiment: TGFβ-induced αSMA high-content imaging; type: cell-based; details: 10 μM, 30 min pre-treatment, TGFβ 5 ng/mL, 48 h
Experimental: (§1) Normal human lung fibroblasts (Lonza) and Primary Human IPF Lung Parenchymal Fibroblasts (Donor2) (BioIVT, #PCR-70-0214) were incubated at 37 °C and 5% CO2. To induce fibrotic response in primary cells, a final concentration of 5 ng/ml of recombinant human TGFβ1 (BioLegend, #580702) was added to the culture media and treated for 24 ~ 48 h. Anti-TGFβ neutralizing antibody (1D11) and the isotype control mouse IgG1 were from BioXcell. SB-525334 and bleomycin were from Sigma. MK-0429 was synthesized by Merck & Co., Inc., Kenilworth, NJ, USA. CHOK1-integrin stable lines were cultured in DMEM/F12, Glutamax (Gibco #10565018), 10% FBS (Gibco 310091148), 1 × Pen/Strep (Gibco 315140-148), and 6 ug/mL Puromycin (Gibco #A1113803).
(§2) Primary cells (passage 3–5) were grown on Cell carrier Ultra, col1 coated 96-well plates (Perkin Elmer, #6055700) at a density of 25,000 cells/well. Once the cells adhere, they were starved in serum free media for 24 h followed by addition of treatments i.e. 5 ng/mL TGFβ (Biolegend #580702) ± inhibitors. Cells were pre-treated with inhibitors for 30 min prior to the addition of TGFβ stimulation. 48hours post treatment, the cells were fixed in 4% methanol free paraformaldehyde (ThermoFisher Scientific #28908) for 20 min at room temperature and incubated with anti-alpha smooth muscle Actin antibody (Abcam #ab7817) at 1:4000 overnight at 4 °C. […]

human αvβ6 = human αvβ6 (Homo sapiens, UniProt P06756+P18564); experiment: AlphaLISA integrin-ligand binding assay; type: biochemical; set-up: hαV 1 992; hβ6 1 709; made in house; host or cells: Expi293
Experimental: (§3) In the AlphaLISA integrin assays, we used a HEPES based buffer (25 mM HEPES pH 7.4, 137 mM NaCl, 1 mM MgCl2, 1 mM MnCl2, 2 mM CaCl2, 2.7 mM KCl, and 0.05% Tween-20). Optimal assay conditions were determined with a titration of the reagents for signal noise ratio (S/N), linear range, etc. For the respective integrins, we used the final concentrations described in Supplemental Table S3. Briefly, the testing antibody (8 μL) was added as a 4x (of Final testing concentration) solution in the HEPES buffer described previously into a 384w AlphaPlate (Perkin Elmer #6005350). Then the integrin and ligand were added sequentially as 8x (4 μL each). Plates were sealed and incubated at room temperature for 2 h. Then 4 × acceptor bead solution (8 μL) was added, and the plates were resealed and incubated at RT for 1 h. Finally, 4 × (8 μL) donor beads solution was added in a darkened room and incubated for 45 min at room temperature. Plates were read on the Envision (Perkin Elmer) in AlphaScreen mode within 3 h of donor bead addition.
(§4) Supplemental Table S3. integrin AlphaLIS A assay reagents and conditions Human A l phal i sa Inte gri n A ssays: Fi nal Condi ti ons […]
(§5) ( batch de pe nde nt) anti body A l phaLi sa A cce ptor havb1 1. 4 nM 1. 0 nMα - Fi brone cti n human Fi brone cti n n/a A cce ptor be ads/ Pe rki n 10. 0 ug/ m 10. 0 ug/ m […]
(§6) havb3 3. 0 nM 10. […]

osteoporosis patients = tested on: osteoporosis patients; set-up: method as in PMID 15687321, PMID 20398037; details: 52 weeks; cited from earlier work
human α5β1 = molecular target: T1, human α5β1 (Homo sapiens, UniProt P05556+P08648); experiment: AlphaLISA integrin-ligand binding assay; type: biochemical
T1 construct: hα5 1 995; hβ1 1 728; made in house; host or cells: Expi293
Experimental: as §3, §4, §5
(§7) havb3 3. 0 nM 10. 0 nMhuman V i trone cti n- GST α - GS T A cce p t o r ug/ m Stre ptavi di n Donor ug/ m tagge d n/a be ads/ Pe rki n 15. 0 l be ads/ Pe rki n El me r 15. 0 l […]
(§8) havb6 0. 1 nM 0. 5 nM 3. […]
(§9) Mouse A l phal i sa Inte gri n A ssays: Fi nal Condi ti ons […]
(§10) m aV b 1 4. 3 nM 1. 0 nMmouse f i brone cti n A bcam α - Fi brone cti n ( Rabbi t […]
(§11) 0 nM 5. […] 0nM be ads/ Pe rki n El me r […]
(§12) m aV b 6 1. 4 nM 2. 5 nMmouse LA P- 6Hi s α - 6x HI S / P e rk i n El m e r ug/ m ug/ m m aV b 8 1. 0 nM 2. 5 nMChe mpartne rn/a( A L 128) 15 l 15 l

mouse αvβ3 = molecular target: T2, mouse αvβ3 (Mus musculus, UniProt O54890+P43406); experiment: AlphaLISA integrin-ligand binding assay; type: biochemical; details: Fig. 4B; read-out: IC50 Mouse integrin AlphaLISA assays: mαvβ3
T2 construct: mαV 1 988; m β3 1 717; made in house; host or cells: Expi293
Experimental: as §3, §4, §5, §7, §8, §9, §10, §11, §12

mouse αvβ5 = molecular target: T3, mouse αvβ5 (Mus musculus, UniProt O70309+P43406); experiment: AlphaLISA integrin-ligand binding assay; type: biochemical; details: Fig. 4B; read-out: IC50 Mouse integrin AlphaLISA assays: mαvβ5
T3 construct: mαV 1 988; m β5 1 719; made in house; host or cells: Expi293
Experimental: as §3, §4, §5, §7, §8, §9, §10, §11, §12

mouse α5β1 = molecular target: T4, mouse α5β1 (Mus musculus, UniProt P09055+P11688); experiment: AlphaLISA integrin-ligand binding assay; type: biochemical; details: Fig. 4B; read-out: IC50 Mouse integrin AlphaLISA assays: mα5β1
T4 construct: mα5 1 999; m β1 1 728; made in house; host or cells: Expi293
Experimental: as §3, §4, §5, §7, §8, §9, §10, §11, §12

mouse αvβ1 = mouse αvβ1 (Mus musculus, UniProt P09055+P43406); experiment: AlphaLISA integrin-ligand binding assay; type: biochemical; set-up: mαV 1 988; m β1 1 728; made in house; host or cells: Expi293; details: Fig. 4B; read-out: IC50 Mouse integrin AlphaLISA assays: mαvβ1
Experimental: as §3, §4, §5, §6

[2] = tested on: IPF patient lung fibroblasts; experiment: TGFβ-induced αSMA high-content imaging; type: cell-based, human; details: even at 10 μM
Experimental: as §1, §2

T1 sequence (P08648 42-995): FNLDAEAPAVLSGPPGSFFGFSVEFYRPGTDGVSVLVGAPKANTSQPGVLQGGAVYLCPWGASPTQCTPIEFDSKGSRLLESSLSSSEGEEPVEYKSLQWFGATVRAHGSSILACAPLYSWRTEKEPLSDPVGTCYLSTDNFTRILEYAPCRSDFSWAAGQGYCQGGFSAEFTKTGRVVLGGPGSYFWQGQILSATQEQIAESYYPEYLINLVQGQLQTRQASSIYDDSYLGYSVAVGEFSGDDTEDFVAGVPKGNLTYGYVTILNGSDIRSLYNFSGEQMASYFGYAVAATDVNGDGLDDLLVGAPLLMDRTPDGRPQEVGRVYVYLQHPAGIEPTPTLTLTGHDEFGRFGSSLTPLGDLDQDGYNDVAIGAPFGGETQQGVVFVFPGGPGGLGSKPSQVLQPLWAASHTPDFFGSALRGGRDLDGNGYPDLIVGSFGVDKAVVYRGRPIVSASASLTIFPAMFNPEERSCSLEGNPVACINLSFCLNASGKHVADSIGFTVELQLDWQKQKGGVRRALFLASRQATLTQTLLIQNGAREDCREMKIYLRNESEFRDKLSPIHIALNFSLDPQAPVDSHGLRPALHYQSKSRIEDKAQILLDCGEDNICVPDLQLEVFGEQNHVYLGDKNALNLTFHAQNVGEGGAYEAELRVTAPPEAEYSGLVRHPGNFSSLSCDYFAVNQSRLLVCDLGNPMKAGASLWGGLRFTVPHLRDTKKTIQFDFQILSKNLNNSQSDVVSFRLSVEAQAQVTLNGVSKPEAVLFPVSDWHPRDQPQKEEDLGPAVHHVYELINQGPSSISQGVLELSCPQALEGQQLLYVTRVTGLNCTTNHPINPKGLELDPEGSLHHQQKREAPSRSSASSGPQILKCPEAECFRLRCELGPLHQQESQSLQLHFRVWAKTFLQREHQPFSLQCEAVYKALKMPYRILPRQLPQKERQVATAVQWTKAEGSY
T1 sequence (P05556 21-728): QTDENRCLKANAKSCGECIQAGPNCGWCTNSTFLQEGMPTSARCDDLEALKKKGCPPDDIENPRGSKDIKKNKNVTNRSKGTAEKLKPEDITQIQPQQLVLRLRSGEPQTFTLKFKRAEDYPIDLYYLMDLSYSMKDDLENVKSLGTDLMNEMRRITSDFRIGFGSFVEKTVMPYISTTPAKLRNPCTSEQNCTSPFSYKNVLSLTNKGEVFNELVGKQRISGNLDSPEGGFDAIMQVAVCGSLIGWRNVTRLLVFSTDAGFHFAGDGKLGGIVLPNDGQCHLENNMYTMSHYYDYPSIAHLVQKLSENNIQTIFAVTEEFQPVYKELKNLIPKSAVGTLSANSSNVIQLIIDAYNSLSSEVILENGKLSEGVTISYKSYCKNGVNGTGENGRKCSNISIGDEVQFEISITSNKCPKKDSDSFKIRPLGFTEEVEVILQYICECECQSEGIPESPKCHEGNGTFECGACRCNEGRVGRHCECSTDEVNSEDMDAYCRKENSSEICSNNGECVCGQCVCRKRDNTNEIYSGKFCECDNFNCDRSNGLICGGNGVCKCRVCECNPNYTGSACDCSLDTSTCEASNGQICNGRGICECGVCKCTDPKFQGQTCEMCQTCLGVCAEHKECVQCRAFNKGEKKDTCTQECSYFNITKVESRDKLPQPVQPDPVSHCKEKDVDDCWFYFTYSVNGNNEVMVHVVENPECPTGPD
Chain of human αvβ6 (P06756 31-992): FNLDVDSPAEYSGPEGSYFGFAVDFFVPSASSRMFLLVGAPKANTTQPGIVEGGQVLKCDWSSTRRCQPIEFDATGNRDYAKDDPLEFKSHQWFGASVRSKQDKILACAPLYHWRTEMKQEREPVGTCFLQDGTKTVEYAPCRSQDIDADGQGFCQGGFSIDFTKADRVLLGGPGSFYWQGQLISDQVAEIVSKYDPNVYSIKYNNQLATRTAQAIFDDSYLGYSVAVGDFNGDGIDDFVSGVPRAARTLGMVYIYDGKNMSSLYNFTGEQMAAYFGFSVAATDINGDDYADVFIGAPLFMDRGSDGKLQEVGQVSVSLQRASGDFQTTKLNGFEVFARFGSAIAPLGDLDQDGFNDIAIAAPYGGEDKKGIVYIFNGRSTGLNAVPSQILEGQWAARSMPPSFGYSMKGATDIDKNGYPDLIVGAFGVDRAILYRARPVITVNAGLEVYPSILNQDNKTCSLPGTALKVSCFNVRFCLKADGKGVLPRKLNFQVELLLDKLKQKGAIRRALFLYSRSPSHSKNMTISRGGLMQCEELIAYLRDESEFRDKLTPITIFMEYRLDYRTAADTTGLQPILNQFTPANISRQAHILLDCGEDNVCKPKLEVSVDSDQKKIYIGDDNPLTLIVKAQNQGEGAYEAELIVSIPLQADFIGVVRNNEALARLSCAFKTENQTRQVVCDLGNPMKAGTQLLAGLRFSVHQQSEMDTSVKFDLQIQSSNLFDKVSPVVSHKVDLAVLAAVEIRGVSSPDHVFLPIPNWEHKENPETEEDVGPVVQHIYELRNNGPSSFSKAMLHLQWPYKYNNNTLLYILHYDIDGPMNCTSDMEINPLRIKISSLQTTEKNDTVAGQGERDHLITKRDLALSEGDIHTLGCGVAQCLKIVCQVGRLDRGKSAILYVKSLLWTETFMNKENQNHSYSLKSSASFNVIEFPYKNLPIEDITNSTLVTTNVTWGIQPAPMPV
Chain of human αvβ6 (P18564 22-709): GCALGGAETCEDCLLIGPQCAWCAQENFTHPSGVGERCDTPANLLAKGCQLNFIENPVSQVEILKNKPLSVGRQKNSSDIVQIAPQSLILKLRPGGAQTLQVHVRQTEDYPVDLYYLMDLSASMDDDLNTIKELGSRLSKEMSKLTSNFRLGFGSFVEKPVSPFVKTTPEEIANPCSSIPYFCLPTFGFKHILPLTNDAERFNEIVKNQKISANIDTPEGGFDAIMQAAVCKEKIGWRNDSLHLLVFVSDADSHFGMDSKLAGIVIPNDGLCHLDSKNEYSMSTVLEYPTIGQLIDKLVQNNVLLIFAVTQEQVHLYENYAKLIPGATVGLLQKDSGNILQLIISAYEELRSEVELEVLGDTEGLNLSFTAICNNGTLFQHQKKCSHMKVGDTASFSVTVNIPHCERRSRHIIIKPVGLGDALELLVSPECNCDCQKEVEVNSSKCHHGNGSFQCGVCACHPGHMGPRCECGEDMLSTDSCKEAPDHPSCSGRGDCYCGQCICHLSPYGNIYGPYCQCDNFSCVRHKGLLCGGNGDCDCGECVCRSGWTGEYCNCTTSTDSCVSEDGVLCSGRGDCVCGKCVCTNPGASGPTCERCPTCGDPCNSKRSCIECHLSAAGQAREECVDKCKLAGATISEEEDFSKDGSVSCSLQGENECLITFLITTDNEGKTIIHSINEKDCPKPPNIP
T4 sequence (P11688 45-999): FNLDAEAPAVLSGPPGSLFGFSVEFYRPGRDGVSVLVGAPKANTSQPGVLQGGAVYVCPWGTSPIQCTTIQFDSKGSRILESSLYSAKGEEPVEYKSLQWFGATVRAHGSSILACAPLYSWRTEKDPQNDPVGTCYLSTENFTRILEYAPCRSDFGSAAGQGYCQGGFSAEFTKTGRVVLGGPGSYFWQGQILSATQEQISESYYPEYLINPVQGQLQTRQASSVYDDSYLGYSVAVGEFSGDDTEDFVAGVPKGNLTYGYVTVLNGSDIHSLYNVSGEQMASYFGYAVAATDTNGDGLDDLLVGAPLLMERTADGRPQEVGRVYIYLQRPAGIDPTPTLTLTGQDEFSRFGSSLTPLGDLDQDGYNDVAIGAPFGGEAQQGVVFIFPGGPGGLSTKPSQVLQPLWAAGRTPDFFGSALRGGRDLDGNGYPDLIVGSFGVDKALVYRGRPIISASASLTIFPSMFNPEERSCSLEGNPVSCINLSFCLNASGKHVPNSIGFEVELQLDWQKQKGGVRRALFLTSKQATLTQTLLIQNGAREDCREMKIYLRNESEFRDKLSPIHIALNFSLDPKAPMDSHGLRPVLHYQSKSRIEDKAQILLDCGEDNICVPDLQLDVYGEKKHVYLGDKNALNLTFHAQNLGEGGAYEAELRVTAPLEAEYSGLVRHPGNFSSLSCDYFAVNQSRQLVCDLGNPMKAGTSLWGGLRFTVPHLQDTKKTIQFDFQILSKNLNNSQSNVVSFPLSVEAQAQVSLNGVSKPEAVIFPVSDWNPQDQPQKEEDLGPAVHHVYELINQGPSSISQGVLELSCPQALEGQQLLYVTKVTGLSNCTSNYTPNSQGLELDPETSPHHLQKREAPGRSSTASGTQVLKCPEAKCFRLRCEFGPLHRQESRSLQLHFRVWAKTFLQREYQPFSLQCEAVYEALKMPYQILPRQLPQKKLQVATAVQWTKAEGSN
T4 sequence (P09055 21-728): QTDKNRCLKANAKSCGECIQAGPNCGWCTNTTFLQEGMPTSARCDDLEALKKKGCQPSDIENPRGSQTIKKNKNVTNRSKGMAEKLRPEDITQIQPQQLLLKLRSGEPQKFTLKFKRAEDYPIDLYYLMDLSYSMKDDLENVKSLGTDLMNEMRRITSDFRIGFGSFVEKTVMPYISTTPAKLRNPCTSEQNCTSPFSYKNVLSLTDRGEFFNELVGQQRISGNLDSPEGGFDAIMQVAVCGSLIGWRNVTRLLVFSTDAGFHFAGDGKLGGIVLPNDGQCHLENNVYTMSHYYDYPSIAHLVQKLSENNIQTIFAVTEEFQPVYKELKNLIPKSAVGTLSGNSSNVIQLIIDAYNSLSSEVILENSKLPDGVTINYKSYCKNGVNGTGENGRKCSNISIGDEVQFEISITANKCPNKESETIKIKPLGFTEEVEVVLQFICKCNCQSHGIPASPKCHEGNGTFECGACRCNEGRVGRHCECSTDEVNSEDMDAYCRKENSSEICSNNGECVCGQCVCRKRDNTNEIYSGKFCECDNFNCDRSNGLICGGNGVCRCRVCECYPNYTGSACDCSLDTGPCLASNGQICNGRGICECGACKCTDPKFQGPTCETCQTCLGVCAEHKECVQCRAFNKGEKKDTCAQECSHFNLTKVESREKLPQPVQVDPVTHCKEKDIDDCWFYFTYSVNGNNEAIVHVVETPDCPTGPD

With `COc1ccc(C(CC(=O)O)N2CCN(CCCc3ccc4c(n3)NCCC4)C2=O)cn1` (centres unmarked) [MK-0429] the “αSMA intensity and percentage of stimulated cells following TGFβ treatment” value [1] was “significantly reduced”, the IC50 (human αvβ6; Fig. 3D, assay optimisation, read-out: IC50 human αvβ6 AlphaLISA) was 3.8 nM and the IC50 (human αvβ6; Fig. 4B, read-out: IC50 Human integrin AlphaLISA assays: hαvβ6) was 0.5 nM. For the same compound, the Safety profile (osteoporosis patients) was “relatively well-tolerated”, the IC50 (human α5β1; Fig. 3D, assay optimisation, read-out: IC50 human α5β1 AlphaLISA) was 17.3 nM and the IC50 (human α5β1; Fig. 4B, read-out: IC50 Human integrin AlphaLISA assays: hα5β1) was 26.5 nM. For the same compound, the IC50 (mouse αvβ3) was 0.9 nM, the IC50 (mouse αvβ5) was 48.3 nM and the IC50 (mouse α5β1) was 50.3 nM. For the same compound, the IC50 (mouse αvβ1) was 1.3 nM and the “Inhibition of αSMA induction” value [2] was “minimal activity”.
